Our source for the GI50 and TGI values is PubChem BioAssay (NCI).

Among the test systems are PC-3 prostate; SF-539 CNS; SF-268 CNS; NCI/ADR-RES ovarian; HCC-2998 colon; SW-620 colon; MCF7 breast; NCI-H460 lung; HCT-15 colon; SK-MEL-28 melanoma.
Holding throughout (test): NCI tumour cell line growth inhibition, 48 h

Molecules are shown by their SMILES. “And” between values parts separate entries of the source, which are not always exact repeats. Equal values may be shown once.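 Assay format: 96-well plates, 48-hour exposure. GI50 = concentration required for 50% inhibition of growth. Definition used: TGI = concentration required for complete inhibition of growth.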

Regarding `Cc1c(C(N)=O)sc2c1c(=O)n(Cc1ccccc1)c1nnc(S(=O)(=O)CC(=O)Nc3ccc(Cl)cc3)n21`, the GI50 in the assay with PC-3 prostate is 2.58 µM; in the assay on SF-539 CNS it was 2.75 µM; with SF-268 CNS it was 6.8 µM; in the assay with NCI/ADR-RES ovarian, 20.2 µM; in the assay with HCC-2998 colon it was 18.7 µM; with SW-620 colon, 4.87 µM. Also, the GI50 with MCF7 breast is 4.76 µM; in the assay with NCI-H460 lung, 2.87 µM; with HCT-15 colon, 38.6 µM; with SK-MEL-28 melanoma, 2.98 µM. Moreover, the TGI with PC-3 prostate is 9.3 µM; in the assay on SF-539 CNS it was 6.5 µM; in the assay on SF-268 CNS it was 27.4 µM; in the assay with NCI/ADR-RES ovarian it was 63.4 µM; in the assay with HCC-2998 colon it was more than 100 µM; with SW-620 colon, 20.4 µM. The TGI in the assay on MCF7 breast is 70.2 µM; in the assay with NCI-H460 lung, 7.64 µM; in the assay with HCT-15 colon, more than 100 µM; with SK-MEL-28 melanoma, 8.45 µM.
Regarding `O=C(CN1C(=O)S/C(=C\C(Cl)=C\c2ccccc2)C1=O)NCCCn1ccnc1`, the GI50 was 2.03 µM in the assay on PC-3 prostate; 2.08 µM with SF-539 CNS; 2.52 µM in the assay on SF-268 CNS; 4.13 µM in the assay on NCI/ADR-RES ovarian; 1.88 µM in the assay on HCC-2998 colon; 1.72 µM in the assay on SW-620 colon. The GI50 in the assay on MCF7 breast is 1.36 µM; with NCI-H460 lung, 2.21 µM; in the assay on HCT-15 colon it was 1.95 µM; in the assay with SK-MEL-28 melanoma, 1.85 µM. Moreover, the TGI was 5.74 µM with PC-3 prostate; 5.27 µM in the assay on SF-539 CNS; 7.65 µM in the assay on SF-268 CNS; more than 100 µM in the assay on NCI/ADR-RES ovarian; 3.57 µM in the assay on HCC-2998 colon; 3.67 µM in the assay with SW-620 colon. The TGI turned out to be 6.11 µM in the assay on MCF7 breast, 6.44 µM in the assay with NCI-H460 lung, 7 µM with HCT-15 colon and 3.72 µM in the assay with SK-MEL-28 melanoma.
Regarding `NS(=O)(=O)c1ccc(N2N=C(c3cccs3)CC2c2ccccc2O)cc1` (centres undefined), the GI50 in the assay on PC-3 prostate was 1.05 µM; in the assay on SF-539 CNS, 0.706 µM; with SF-268 CNS, 1.16 µM; with NCI/ADR-RES ovarian it was 4.84 µM; in the assay on HCC-2998 colon it was 1.33 µM; in the assay on SW-620 colon it was 1.16 µM. Besides, the GI50 with MCF7 breast was 1.01 µM; with NCI-H460 lung, 1.16 µM; in the assay on HCT-15 colon it was 1.35 µM; in the assay with SK-MEL-28 melanoma it was 2.12 µM. The TGI in the assay with PC-3 prostate amounted to 4.38 µM; in the assay with SF-539 CNS it was 1.76 µM; in the assay on SF-268 CNS, 4.48 µM; with NCI/ADR-RES ovarian, 19 µM; in the assay on HCC-2998 colon it was 5.12 µM; in the assay with SW-620 colon, 4.83 µM. For the same compound, the TGI with MCF7 breast is 4.45 µM; with NCI-H460 lung, 4.24 µM; with HCT-15 colon it was more than 33.3 µM; with SK-MEL-28 melanoma, 8.62 µM.
With `COc1cc2c3cc1Oc1c(OC)c(OC)cc4c1C(Cc1ccc(cc1)Oc1cc(ccc1O)CC3N(C)CC2)N(C)CC4` (centres undefined), the TGI in the assay on PC-3 prostate is 28.4 µM; in the assay with SF-539 CNS, 23.6 µM and 3.81 µM; in the assay on SF-268 CNS, 44.6 µM and 24.7 µM; in the assay with NCI/ADR-RES ovarian, 60.5 µM; in the assay with HCC-2998 colon it was 25 µM and 11.7 µM; with SW-620 colon, 22.6 µM and 45.8 µM. The TGI with MCF7 breast is 20.8 µM; in the assay with NCI-H460 lung, 32.6 µM and 17.3 µM; in the assay with HCT-15 colon, 23.2 µM and 14.3 µM; with SK-MEL-28 melanoma, 25.9 µM and 26 µM. The GI50 with SF-539 CNS is 11.4 µM and 1.56 µM; in the assay with HCC-2998 colon, 11.7 µM and 2.71 µM; in the assay on NCI-H460 lung, 14.5 µM and 4.72 µM; with HCT-15 colon it was 8.8 µM and 3.19 µM; in the assay with SK-MEL-28 melanoma it was 12.9 µM and 5.81 µM.
As for `CCCC(CCC)C(=O)OCC1(CO)C/C(=C\c2ccc(C(F)(F)F)cc2)C(=O)O1` (centres undefined), the GI50 in the assay on PC-3 prostate was 12.3 µM; in the assay on SF-539 CNS it was 11.8 µM; in the assay on SF-268 CNS, 16.2 µM; in the assay on NCI/ADR-RES ovarian, 15.3 µM; in the assay on HCC-2998 colon it was 10.9 µM; in the assay with SW-620 colon, 8.64 µM. In addition, the GI50 in the assay on MCF7 breast was 17.4 µM; in the assay with NCI-H460 lung, 3.04 µM; in the assay with HCT-15 colon, 12.8 µM; in the assay with SK-MEL-28 melanoma, 15.5 µM. Also, the TGI in the assay on PC-3 prostate was determined as 25.4 µM; in the assay on SF-539 CNS, 24.2 µM; with SF-268 CNS, 33.3 µM; in the assay with NCI/ADR-RES ovarian, 32 µM; in the assay with HCC-2998 colon, 24 µM; in the assay on SW-620 colon, 21.8 µM. Besides, the TGI in the assay with MCF7 breast came to 33.9 µM; in the assay on NCI-H460 lung, 21.7 µM; in the assay on HCT-15 colon, 26.9 µM; in the assay with SK-MEL-28 melanoma, 29.2 µM.
For `CN(C)N=Nc1nn(C(=O)Nc2ccc(Cc3ccccc3)cc2)c2ccccc12`, the GI50 with PC-3 prostate is 4.65 µM; in the assay with SF-539 CNS, 1.46 µM; in the assay on SF-268 CNS, 17.1 µM; in the assay with NCI/ADR-RES ovarian it was 0.957 µM; in the assay with HCC-2998 colon, 0.802 µM; in the assay on SW-620 colon, 0.199 µM. Further, the results for the GI50 with MCF7 breast, in the assay with NCI-H460 lung and in the assay with HCT-15 colon were 0.387 µM, 0.111 µM and 0.396 µM, respectively. For the same compound, the TGI in the assay with PC-3 prostate is more than 100 µM; in the assay with SF-539 CNS it was more than 23.7 µM; in the assay on SF-268 CNS, more than 100 µM; in the assay with NCI/ADR-RES ovarian, more than 100 µM; in the assay with HCC-2998 colon, more than 47.7 µM; with SW-620 colon, more than 100 µM. Besides, the TGI in the assay with MCF7 breast, with NCI-H460 lung, in the assay on HCT-15 colon and with SK-MEL-28 melanoma was more than 100 µM in each case.
Turning to `O=C(Cn1c2ccccc2c2ccncc21)N/N=C\c1ccc2ccccc2c1`, the GI50 in the assay with PC-3 prostate was 19 µM; with SF-539 CNS it was 13.6 µM; in the assay with SF-268 CNS it was 18.7 µM; with NCI/ADR-RES ovarian it was 15.8 µM; in the assay with HCC-2998 colon, 35.9 µM; in the assay on SW-620 colon, 12.7 µM. Moreover, the GI50 in the assay with MCF7 breast was 14.3 µM; in the assay on NCI-H460 lung, 13.9 µM; in the assay with HCT-15 colon, 14.7 µM; with SK-MEL-28 melanoma it was 19.2 µM. The TGI was more than 100 µM in the assay on PC-3 prostate; 28.7 µM with SF-539 CNS; 91.6 µM in the assay with SF-268 CNS; more than 100 µM in the assay with NCI/ADR-RES ovarian; more than 100 µM in the assay with HCC-2998 colon; more than 100 µM with SW-620 colon. The TGI with MCF7 breast was more than 100 µM; with NCI-H460 lung, 39.9 µM; with HCT-15 colon, more than 100 µM; with SK-MEL-28 melanoma it was 79.7 µM.
